Reference: ChEMBL document CHEMBL1201862, “PubChem BioAssay data set” (2004)
Active and inactive are the calls of the source.

Assays:
[1] = decrease of insulin promoter-GFP reporter – imaging, high-content screening, mouse beta cells (AID 1628); type: functional; conditions: MIN6
[2] = MIN6 cell viability loss – mouse insulinoma, cytotoxicity control, dose response (AID 2122); type: functional;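 further: confirmatory high-throughput counterscreen run to flag cytotoxic compounds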
[3] = molecular target: T1, Ubiquitin-conjugating enzyme E2 N (Homo sapiens, UniProt P61088); type: functional;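 further: Dose-response confirmation in a TR-FRET assay detecting UBC13-driven polyubiquitin chain formation, inhibition measured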
T1 sequence (P61088 whole entry): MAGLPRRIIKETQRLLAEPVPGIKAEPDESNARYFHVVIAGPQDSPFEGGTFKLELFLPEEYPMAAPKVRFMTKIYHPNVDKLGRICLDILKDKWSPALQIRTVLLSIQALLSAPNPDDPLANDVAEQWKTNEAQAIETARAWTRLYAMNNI

[4] = molecular target: T2, Replicative DNA helicase DnaB (Mycobacterium tuberculosis, UniProt P9WMR3); test: DnaB intein splicing inhibitors, dose response, biochemical, cell-free fluorescence (AID 449749); type: functional
T2 sequence (P9WMR3 whole entry): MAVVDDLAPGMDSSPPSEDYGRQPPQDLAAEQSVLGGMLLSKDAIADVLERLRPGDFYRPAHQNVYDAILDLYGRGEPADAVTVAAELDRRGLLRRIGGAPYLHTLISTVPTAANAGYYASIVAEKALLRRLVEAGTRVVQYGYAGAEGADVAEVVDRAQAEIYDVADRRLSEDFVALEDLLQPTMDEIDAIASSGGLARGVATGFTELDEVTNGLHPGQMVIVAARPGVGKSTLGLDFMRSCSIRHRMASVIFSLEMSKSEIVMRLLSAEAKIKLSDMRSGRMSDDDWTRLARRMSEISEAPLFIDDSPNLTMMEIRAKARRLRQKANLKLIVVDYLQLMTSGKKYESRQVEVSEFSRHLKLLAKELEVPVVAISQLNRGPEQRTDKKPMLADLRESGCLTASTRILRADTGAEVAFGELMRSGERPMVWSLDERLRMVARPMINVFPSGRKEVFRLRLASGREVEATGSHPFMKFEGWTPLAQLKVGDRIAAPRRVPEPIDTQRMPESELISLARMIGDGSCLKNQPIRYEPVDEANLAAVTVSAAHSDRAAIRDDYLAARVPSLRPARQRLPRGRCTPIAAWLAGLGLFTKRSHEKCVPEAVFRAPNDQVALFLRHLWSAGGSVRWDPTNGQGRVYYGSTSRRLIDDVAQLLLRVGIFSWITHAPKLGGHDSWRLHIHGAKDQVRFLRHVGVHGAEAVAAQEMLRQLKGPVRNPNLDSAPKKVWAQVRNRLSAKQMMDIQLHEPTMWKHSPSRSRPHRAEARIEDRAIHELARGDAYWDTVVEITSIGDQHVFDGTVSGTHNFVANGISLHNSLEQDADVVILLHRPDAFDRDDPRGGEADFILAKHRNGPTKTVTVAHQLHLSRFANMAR

[5] = molecular target: T3, Protein RecA (Mycobacterium tuberculosis, UniProt P9WHJ3); test: Fluorescence Cell-Free Homogeneous Dose Retest to Identify Inhibitors of RecA-Intein Splicing Activity. [Related pubchem assays (depositor defined):AID2097, AID2223, AID489010, AID492950]; type: functional
T3 sequence (P9WHJ3 whole entry): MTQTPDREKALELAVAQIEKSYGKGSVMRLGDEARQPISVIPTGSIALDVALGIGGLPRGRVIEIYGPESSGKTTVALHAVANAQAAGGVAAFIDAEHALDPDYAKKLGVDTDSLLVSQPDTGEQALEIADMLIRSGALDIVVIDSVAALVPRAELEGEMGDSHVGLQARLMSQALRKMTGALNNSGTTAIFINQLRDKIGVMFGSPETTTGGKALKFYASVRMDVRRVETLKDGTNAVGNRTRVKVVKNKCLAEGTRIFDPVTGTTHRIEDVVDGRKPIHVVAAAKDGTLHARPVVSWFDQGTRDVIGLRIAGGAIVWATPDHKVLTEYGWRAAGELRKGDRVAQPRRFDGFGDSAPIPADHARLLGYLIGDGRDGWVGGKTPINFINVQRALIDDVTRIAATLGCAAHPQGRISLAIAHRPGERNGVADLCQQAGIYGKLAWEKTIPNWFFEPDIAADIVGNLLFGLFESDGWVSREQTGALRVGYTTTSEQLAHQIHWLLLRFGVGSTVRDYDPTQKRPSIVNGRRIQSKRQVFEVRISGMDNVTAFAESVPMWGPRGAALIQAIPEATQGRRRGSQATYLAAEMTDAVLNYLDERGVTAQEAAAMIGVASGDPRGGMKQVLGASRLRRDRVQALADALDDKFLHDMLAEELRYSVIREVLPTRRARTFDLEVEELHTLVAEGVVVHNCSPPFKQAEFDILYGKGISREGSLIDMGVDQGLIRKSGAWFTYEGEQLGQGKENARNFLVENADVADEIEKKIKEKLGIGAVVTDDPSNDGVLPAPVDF

[6] = system: INS1; test: INS-1E survival protection against cytokine death – cell-based, luminescence, retest, dose response (AID 449756); type: functional; conditions: Rattus norvegicus;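 further: cell death triggered by IL-1 beta plus TNF-alpha plus IFN-gamma mixture; protective hits raise ATP signal compared with cytokine alone wells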
[7] = molecular target: T4, Cytochrome P450 2C9 (Homo sapiens, UniProt P11712)
[8] = molecular target: Cytochrome P450 3A4 (Homo sapiens, UniProt P08684);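 further: CYP3A4 tested as one member of a cytochrome P450 panel screen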
[9] = molecular target: T5, Heat shock factor protein 1 (Mus musculus, UniProt P38532); test: enhancement of HSF1-driven luciferase signal – cell-based, NIH3T3, luminescence, dose retest, confirmation (AID 435004); type: functional;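 further: stress induced by proteasome inhibitor MG132 added 30 min after compound; luciferase reporter driven by HSF1 response element in NIH3T3 cells; actives raise luminescence as potentiators of the MG132 stress response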
T5 sequence (P38532 whole entry): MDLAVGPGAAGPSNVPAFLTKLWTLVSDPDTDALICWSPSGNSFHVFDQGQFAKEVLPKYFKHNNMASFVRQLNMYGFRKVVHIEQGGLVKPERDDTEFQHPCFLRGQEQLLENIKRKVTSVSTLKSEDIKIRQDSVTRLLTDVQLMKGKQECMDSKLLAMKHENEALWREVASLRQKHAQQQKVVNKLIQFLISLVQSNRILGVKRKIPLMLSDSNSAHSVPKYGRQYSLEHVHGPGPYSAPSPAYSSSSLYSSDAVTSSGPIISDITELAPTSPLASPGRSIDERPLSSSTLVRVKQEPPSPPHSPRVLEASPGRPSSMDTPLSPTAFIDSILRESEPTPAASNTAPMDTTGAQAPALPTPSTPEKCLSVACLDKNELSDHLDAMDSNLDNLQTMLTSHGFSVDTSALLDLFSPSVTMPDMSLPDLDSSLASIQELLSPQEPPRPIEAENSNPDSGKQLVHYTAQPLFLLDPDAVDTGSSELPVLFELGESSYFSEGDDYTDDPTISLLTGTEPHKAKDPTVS

[10] = molecular target: T4, Cytochrome P450 2C9; remark: listed apart in the source
[11] = viability of PTEN-deleted HCT116 cells – cell-based, HCT116 PTEN knockout, dose response (AID 1047); type: functional;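 further: HCT116 colon tumor cells with PTEN knocked out; cells exposed to compound for 60 hours before readout; potency for loss of cell viability measured by luminescence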
[12] = viability of HCT116 lacking mutant beta-catenin – cell-based, human colon tumor, dose response (AID 1045); type: functional;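 further: HCT116 colon tumor cells with beta catenin knocked out; cells exposed to compound for 60 hours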
[13] = Luminescence Cell-Based Dose Retest to Confirm Inhibitors of Cancer Stem Cells. [Related pubchem assays (depositor defined):AID2717, AID2721]; type: functional; conditions: Homo sapiens
[14] = molecular target: T6, Microphthalmia-associated transcription factor (Homo sapiens, UniProt O75030); test: reducers of TRPM1 reporter luminescence, concentration series – cell-based, SK-MEL-5, cherry-picked, set 3, MITF inhibitor project, dose response (AID 493073); type: functional;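 further: SK-MEL-5 melanoma cells with luciferase driven by the MITF target TRPM1 promoter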
T6 sequence (O75030 whole entry): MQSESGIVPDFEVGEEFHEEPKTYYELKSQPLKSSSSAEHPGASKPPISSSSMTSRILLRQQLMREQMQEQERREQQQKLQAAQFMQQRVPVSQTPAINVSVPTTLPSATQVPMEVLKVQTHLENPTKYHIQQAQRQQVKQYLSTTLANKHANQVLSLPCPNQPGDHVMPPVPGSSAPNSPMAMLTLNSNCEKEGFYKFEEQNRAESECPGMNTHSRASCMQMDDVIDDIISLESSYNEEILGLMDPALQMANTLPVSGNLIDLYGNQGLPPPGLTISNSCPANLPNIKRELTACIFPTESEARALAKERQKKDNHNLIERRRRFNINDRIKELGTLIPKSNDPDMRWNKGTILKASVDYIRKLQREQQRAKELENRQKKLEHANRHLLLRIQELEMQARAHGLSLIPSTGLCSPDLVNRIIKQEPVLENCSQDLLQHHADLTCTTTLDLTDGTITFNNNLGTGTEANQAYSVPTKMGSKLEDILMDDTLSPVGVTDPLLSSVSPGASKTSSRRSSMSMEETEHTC

[15] = system: A-375; test: proliferation inhibition in MITF-low A375 cells – cell-based, cherry-pick samples, set 2, counter-screen for MITF modulator project, dose response (AID 540335); type: functional; conditions: Homo sapiens
[16] = HEK-293T viability loss after treatment – luminescence, T-cell screen hits, cytotoxicity control for TCR NF-kB inhibitor project, dose response (AID 489026); type: functional, cell-based;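 further: cells exposed to compound about 14 hours before the viability readout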
[17] = system: BJ; test: BJ-TERT fibroblast viability loss – cell-based, RAS-independent, luminescence, dose response (AID 1933); type: functional; conditions: Homo sapiens
[18] = system: BJ; test: cells; type: functional, cell-based; conditions: Homo sapiens
[19] = system: BJ; test: BJ-TERT-LT-ST fibroblast viability loss – cell-based, RAS-independent, luminescence, dose response (AID 1935); type: functional; conditions: Homo sapiens;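 further: BJ fibroblasts immortalized with TERT plus LT and ST oncogenes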
[20] = DRD fibroblast viability loss – cell-based, non-viral oncogenic, luminescence, dose response (AID 1934); type: functional; conditions: Homo sapiens
[21] = molecular target: Eukaryotic translation initiation factor 4E (Mus musculus, UniProt P63073); test: blockers of eIF4G binding by eIF4E – biochemical, TR-FRET, dose response (AID 855); type: functional;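 further: potency for disrupting eIF4E binding to eIF4GI seen as loss of FRET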
Eukaryotic translation initiation factor 4E, sequence (P63073 whole entry): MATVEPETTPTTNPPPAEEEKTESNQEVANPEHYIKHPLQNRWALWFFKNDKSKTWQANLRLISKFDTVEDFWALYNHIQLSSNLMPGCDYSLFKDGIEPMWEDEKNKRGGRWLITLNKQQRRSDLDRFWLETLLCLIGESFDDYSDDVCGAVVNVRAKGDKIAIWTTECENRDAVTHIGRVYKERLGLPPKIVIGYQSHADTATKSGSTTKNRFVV

T4 sequence (P11712 whole entry): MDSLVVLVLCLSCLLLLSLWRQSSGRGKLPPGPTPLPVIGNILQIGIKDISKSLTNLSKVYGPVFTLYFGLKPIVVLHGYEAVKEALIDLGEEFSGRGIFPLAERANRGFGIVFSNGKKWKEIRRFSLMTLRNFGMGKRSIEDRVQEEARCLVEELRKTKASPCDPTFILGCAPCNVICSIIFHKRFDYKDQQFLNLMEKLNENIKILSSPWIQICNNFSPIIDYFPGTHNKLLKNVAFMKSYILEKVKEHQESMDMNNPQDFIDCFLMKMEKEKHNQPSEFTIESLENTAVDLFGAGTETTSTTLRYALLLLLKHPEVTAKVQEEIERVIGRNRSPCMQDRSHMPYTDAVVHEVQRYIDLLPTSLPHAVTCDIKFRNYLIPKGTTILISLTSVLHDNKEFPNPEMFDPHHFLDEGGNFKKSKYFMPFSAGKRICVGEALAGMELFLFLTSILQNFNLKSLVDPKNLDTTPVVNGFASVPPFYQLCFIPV
Cytochrome P450 3A4, sequence (P08684 whole entry): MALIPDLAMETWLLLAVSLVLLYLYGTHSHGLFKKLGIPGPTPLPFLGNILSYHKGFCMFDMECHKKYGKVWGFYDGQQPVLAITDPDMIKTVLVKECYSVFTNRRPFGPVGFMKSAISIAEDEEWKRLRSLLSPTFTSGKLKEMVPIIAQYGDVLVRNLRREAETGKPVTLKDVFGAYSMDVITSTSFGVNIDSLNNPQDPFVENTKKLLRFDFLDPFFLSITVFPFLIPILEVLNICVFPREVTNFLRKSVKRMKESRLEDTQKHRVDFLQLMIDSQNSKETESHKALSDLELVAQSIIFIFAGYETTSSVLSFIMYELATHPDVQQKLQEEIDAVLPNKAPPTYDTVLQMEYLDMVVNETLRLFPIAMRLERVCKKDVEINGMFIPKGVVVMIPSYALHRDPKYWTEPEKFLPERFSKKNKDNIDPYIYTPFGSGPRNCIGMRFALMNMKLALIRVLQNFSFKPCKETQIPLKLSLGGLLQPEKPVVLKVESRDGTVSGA

SMILES: c1ccc(Nc2nc(NCc3ccco3)c3ccccc3n2)cc1
- IC50 [1]: 1.22 µM (active)
- IC50 [2]: 1.08 µM (active)
- IC50 [3]: > 20 µM (inactive)
- AC50 [4]: 3.66 µM (active)
- EC50 [5]: 12 µM (active)
- AC50 [6]: 5.14 µM (active)

SMILES: O=c1[nH]c(=O)n(Cc2ccco2)c2c1C(C(F)(F)F)(C(F)(F)F)NC(CCC1CCCCC1)=N2
- AC50 [7]: 2.82 µM (inconclusive)
- AC50 [8]: inconclusive

SMILES: Cc1nc2ccccc2n1CC(O)COCC1CC=CCC1 (centres undefined)
- IC50 [1]: 2.27 µM (active)
- IC50 [2]: 1.67 µM (active)
- EC50 [9]: > 260 µM (inactive)

SMILES: C=CCNc1sc(C(=O)c2ccccc2)c(N)c1C#N
- AC50 [8]: inconclusive
- AC50 [10]: inconclusive

SMILES: CN(C)CCNC(=O)/C(=C/c1ccc(-c2ccc(Cl)cc2Cl)o1)NC(=O)c1ccccc1
- EC50 [11]: 5.71 µM (active)
- EC50 [12]: 4.99 µM (active)
- AC50 [13]: 6.63 µM (active)
- AC50 [14]: 4.97 µM (active)
- AC50 [6]: 7.89 µM (active)
- AC50 [15]: 18.9 µM (active)

SMILES: O=C(Nc1ccc(CSc2ccccc2)cc1)c1ccc(CN2CCOCC2)cc1
- IC50 [16]: > 80 µM (inactive)

SMILES: CCN(CC(=O)Nc1ccccc1-c1ccccc1)Cc1nc(O)c2ccccc2n1
- EC50 [17]: 20.1 µM (active)
- EC50 [18]: 67.2 µM (active)
- EC50 [19]: > 75 µM (not active)
- EC50 [20]: 17.9 µM (active)

SMILES: Cc1nc(N2CCCCC2)sc1C(=O)c1cccc([N+](=O)[O-])c1
- EC50 [17]: > 150 µM (not active)
- EC50 [18]: > 150 µM (not active)
- EC50 [19]: > 150 µM (not active)
- EC50 [20]: > 150 µM (not active)

SMILES: COc1ccc(-c2noc(CSc3nc(N)c(-c4ccccc4)c(=O)[nH]3)n2)cc1OC
- IC50 [21]: > 64 µM (inactive)
